Results published in patent US9078916B2, “Method for producing and using a copolymer of sodium carboxymethyl cellulose and gossypol” (Limited Liability Company “Nearmedic Plus”, priority 2010, dated 2015).
“Also recorded” adds a separate entry of the source.

Test system: 6-year children with autistic spectrum disorders and severe cognitive impairments
Experiment: Complex therapy of 6-year children, copolymer tablets added to basic therapy with neuroleptics
Assay type: in vivo
Excerpt: The method can be used for the treatment of autistic disorders and cognitive impairments in 6-year children. A treatment regimen is selected by a specialist depending on the severity of a disease, condition and age of a patient. In particular, the treatment can be performed according to the following regimen: administration of a medicament 3 times per day for 5 days followed by the 5-day break. This ten-day cycle is repeated […]. The total duration of the treatment is 30 days. A dose of the active agent is 36 mg/day. Then, the course should be repeated.
The efficacy and safety of the use of sodium carboxymethyl cellulose polymer with a degree of substitution of 0.35 to 0.80 and gossypol, of formula (I) in a complex therapy of 6-year children with autistic spectrum disorders and severe cognitive impairments were studied. The children were administered with a medicament comprising a copolymer of sodium carboxymethyl cellulose with a degree of substitution of 0.35 to 0.80 and gossypol, of formula (I) (tablets containing 12 mg of the active agent, which composition is shown in Table 2) on the background of basic therapy with neuroleptics such as neuleptil, haloperidol, aminazine, teraligen, triphtazine, eglonil, azaleptin chlorprothixene. Antidepressants (e.g., anafranil) and anticonvulsants (finlepsin, trileptal, or topamax) were used in some cases. Neuroleptics, antidepressants and anticonvulsants were used in optimal therapeutic doses. […] When the therapy was supplemented with a medicament comprising a copolymer of sodium carboxymethyl cellulose with a degree of substitution of 0.35 to 0.80 and gossypol, of formula (I), the manifestations of encopresis and enuresis ceased, catatonic disorders decreased, cognitive functions improved, and speech appeared. In patients with mild to moderate autism, restricted repetitive behavior disappeared.

[1] = patients with very severe autism, therapy supplemented with the medicament

## sodium salt of copolymer of carboxymethyl cellulose with a degree of substitution of 0.35 to 0.80 and gossypol
Added to basic therapy, especially patients with very severe autism, 12 mg tablets
  resistance to therapy with neuroleptics / psychotropic drugs: decreased; also recorded: elimination
In vivo
  negative side effects on a patient: does not have negative side effects
  tolerability: well tolerable
  toxic and allergic reactions: not reported
Patients with mild to moderate autism
  restricted repetitive behavior: disappeared
[1]
  catatonic disorders: decreased
  manifestations of encopresis and enuresis: ceased
  speech: appeared
Therapy supplemented with the medicament
  cognitive functions: improved; also recorded: significant improvement
When administering the medicament
  mental condition of the patients: improved
